In patent US5684147A, “Therapeutic anti-HIV anti-viral oligonucleotides and pharmaceutical formulations thereof” (Hybridon, Inc., priority 1994, dated 1997):
Like-named read-outs stand apart in the source and are kept apart here.

Experiments:
[1] = tested on: HIV-1 reverse transcriptase (RT) activity in chronically infected CEM cells; conditions: chronically infected human T lymphocytes such as CEM; general statement without data; cited from earlier work
[2] = tested on: HIV-1 (HTLVIIIB or HTLVIIIMN strains) in H9 cells; assay: HIV p24 antigen capture assay, acute infection of H9 cells; format: cell-based; conditions: Human immunodeficiency virus 1, H9, Expt. 1
Excerpt: After infection, unabsorbed virions are removed by washing.

[3] = tested on: HIV-1 (HTLVIIIB) in H9 cells; assay: Long term infection assay, p24 expression in H9 cells (antigen capture); format: cell-based; conditions: for inhibition at 0.05 µM: read-out: % inhibition of p24 compared with control

SMILES	inhibition of HIV replication in chronically infected cells (in words) [1]	inhibition at 0.005 µM ([2]; AZT 0.0016 μg/ml (0.005 μM)) [%]	inhibition at 0.02 µM ([2]; AZT 0.008 μg/ml (0.02 μM)) [%]	inhibition at 0.1 µM ([2]; AZT 0.04 μg/ml (0.1 μM)) [%]	inhibition at 0.6 µM ([2]; AZT 0.2 μg/ml (0.6 μM)) [%]	inhibition at 0.05 µM ([3]; Human immunodeficiency virus 1, H9, 72 h, day 3, 25mer 0.60 μM, ddC 0.05 μM) [%]	inhibition at 0.05 µM ([3]; Human immunodeficiency virus 1, H9, 168 h, day 7, 25mer 0.60 μM, ddC 0.05 μM) [%]	inhibition at 0.05 µM ([3]; Human immunodeficiency virus 1, H9, 240 h, day 10, 25mer 0.60 μM, ddC 0.05 μM) [%]	inhibition at 0.05 µM ([3]; Human immunodeficiency virus 1, H9, 336 h, day 14, 25mer 0.60 μM, ddC 0.05 μM) [%]	inhibition at 0.05 µM ([3]; Human immunodeficiency virus 1, H9, 408 h, day 17, 25mer 0.60 μM, ddC 0.05 μM) [%]	p24 expression ([3]; day 3, 25mer 0.60 μM, ddC 0.05 μM, control 489) [pg/mL]	p24 expression (pg/ml) ([3]; day 7, 25mer 0.60 μM, ddC 0.05 μM, control 188,800)	p24 expression (pg/ml) ([3]; day 10, 25mer 0.60 μM, ddC 0.05 μM, control 210,400)	p24 expression (pg/ml) ([3]; day 14, 25mer 0.60 μM, ddC 0.05 μM, control 130,400)	p24 expression (pg/ml) ([3]; day 17, 25mer 0.60 μM, ddC 0.05 μM, control 95,600)	long term inhibition of p24 expression (in words) ([3]; long term culture, up to day 17)
Cc1cn([C@H]2C[C@H](N=[N+]=[N-])[C@@H](CO)O2)c(=O)[nH]c1=O [AZT, 3'-azido-3'-deoxythymidine]	do not inhibit HIV replication	6	44	73	90											
Nc1ccn([C@H]2CC[C@@H](CO)O2)c(=O)n1 [ddC, dideoxycytosine]	do not inhibit HIV replication					75	94	91	56	44	124	10,800 pg/ml	17,300 pg/ml	60,000 pg/ml	54,000 pg/ml	ineffectiveness of ddC
